Entries after “also recorded” stand apart in the source; their conditions may differ.
How the values were obtained:
[1] = system: melanoma cell lines lacking STING; test: STING/cGAS expression by immunoblot after demethylating agent treatment
Source text: STING and cGAS expression were examined in a panel of human melanoma cell lines by immunoblot.

[2] = system: melanoma cell lines lacking STING; test: CXCL-10 induction in 5AZADC-treated melanoma cells after STING agonist stimulation; details: 5AZADC-treated cell lines lacking STING, then stimulated with the STING agonist 2′3′-cGAMP
[3] = system: human melanoma cell lines; test: CXCL10 and IFN-β release (ELISA) after STING agonist stimulation; format: cell-based
[4] = system: human melanoma cell lines (WM39, WM3629, 526-MEL) as targets, TIL 195 as effector cells; test: 51Cr release cytotoxicity assay, lysis of melanoma targets by TIL
Protocol: After 4 hours, supernatant was harvested and measured in Trilux (PerkinElmer). Each point represented the average of quadruplicate wells and percentage of specific lysis was calculated by: (experimental release—minimum release)/(maximum release-minimum release)×100.

[5] = system: human melanoma cell lines; test: IRF3 phosphorylation by immunoblot after STING agonist stimulation; format: cell-based
Source text: Proteins were extracted with RIPA buffer (ThermoFisher Scientific) containing protease inhibitors (Thermo Scientific). Protein extracts from NK92, a natural killer cell line, was used as a positive control for the expression of STING and cGAS (Souza-Fonseca-Guimaraes F, et al. J Biol Chem. 2013 288:10715-21). Equal amounts of proteins were resolved on SDS-PAGE gels (Bio-Rad) and transferred to polyvinylidene fluoride (PVDF) membranes (Bio-Rad). After blocking with 5% non-fat dry milk, membranes were incubated with antibodies specific for STING, cGAS, p-IRF3, IRF3 (all from Cell Signaling) and β-actin (Sigma Aldrich). Following incubation with appropriate secondary antibodies, bands were visualized using an enhanced chemiluminescence detection system.

[6] = system: human melanoma cell lines; test: Flow cytometry of MHC class I (HLA-A.B.C) surface expression; format: cell-based
Protocol: DAPI (Sigma-Aldrich) was used as a viability dye. Sample acquisition was performed on an LSR II flow cytometer (BD Biosciences), and the data were analyzed using FlowJo software (Tree Star).

[7] = system: human melanoma cell lines (WM39, WM3629, 526-MEL) co-cultured with HLA-matched TIL; test: Co-culture assay of melanoma cells with HLA-matched TIL, cytokine release by ELISA
Protocol: TIL production of IFN-γ and ^51Cr release was assessed for cytotoxicity.
After 24 hours of incubation at 37° C. in a humidified CO2 incubator, the supernatant was harvested for detection of IFN-γ release using enzyme-linked immunosorbent assay (Human IFN-γ Quantikine ELISA Kit, R&D Systems). For the MHC class I blocking assay, melanoma cells were incubated with W6/32 (anti-HLA-A,B,C monoclonal antibody, Biolegend) at a final concentration of 50 μg/mL for 1 hour at 37° C. prior to the addition of TIL.

[8] = WM9 and WM39 cell lines, 2′3′-cGAMP stimulation

Nc1ncn([C@H]2C[C@H](O)[C@@H](CO)O2)c(=O)n1 [5AZADC, 5-aza-2′-deoxycytidine]
STING expression ([1]; 5AZADC-treated melanoma cell lines lacking STING): Partial induction of STING expression; also recorded: reconstitution of STING expression | STING and cGAS expression ([1]; A375, G361, MeWO, SK-MEL-5 and other human melanoma cell lines with and without 5AZADC (FIG. 7)): partially recapitulated | CXCL-10 induction [2]: induction of CXCL-10; also recorded: production of CXCL-10; also recorded: STING-dependent CXCL-10 induction

Nc1nc2c(ncn2[C@@H]2O[C@@H]3COP(=O)(O)O[C@H]4[C@@H](O)[C@H](n5cnc6c(N)ncnc65)O[C@@H]4COP(=O)(O)O[C@@H]2[C@@H]3O)c(=O)[nH]1 [2′3′-cGAMP, 2′3′-cyclic-GMP-AMP]
response to 2′3′-cGAMP stimulation (p-IRF3, CXCL10, IFN-β) ([3]; 526-MEL (HLA-A2) cell line): did not respond | CXCL10 induction in cell culture supernatants [3, 8]: detectable levels | IFN-β induction in cell culture supernatants [3, 8]: detectable levels | lysis by TIL 195 (lytic units) ([4]; 526-MEL cells): did not induce any increase in lysis | specific lysis by TIL 195 ([4]; 526-MEL targets, defective in STING signaling): did not alter their specific lysis | augmentation of TIL cytotoxicity ([4]; Example 2, STING-responsive cell lines with HLA-matched TILs, p<0.05): > 2 fold | increase in lytic potential of TIL 195 (lytic units) ([4]; WM39 and MART-1-pulsed WM39 cells vs their controls): > 10 fold | increase in lysis by TIL 195 ([4]; WM39 and MART-1 pulsed WM39 targets, p<0.05): > 2 fold | cytolytic activity of TIL 195 ([4]; WM39 and sh-control targets): increased cytolytic activity | cytotoxicity of the STING agonist alone ([4]; WM39 target cells with or without 2′3′-cGAMP in the absence of TIL): did not result in any major cytotoxicity | lysis by TIL 195 (lytic units) ([4]; WM3629 cells): greater lysis | cytotoxicity (lysis by TIL 195) ([4]; WM3629 targets, p<0.05 vs controls): Increased | cytolytic activity of TIL 195 ([4]; sh-STING (STING knockdown WM39) targets): complete blockade of this response | phosphorylation of IRF3 ([5]; 5 STING-positive cell lines (WM164, WM9, WM39, A375, WM1366), 2′3′-cGAMP 10 μg/ml with Lipofectamine, 4 h): 4 of 5 STING-positive cell lines | phosphorylation of IRF3 ([5]; WM2032 (STING-negative) cell line, 2′3′-cGAMP stimulated): not detected | expression of MHC class I ([6]; 1205Lu, WM266-4, WM2032 and 526-MEL cell lines with impaired STING signaling): no significant changes | MHC-I/HLA-A.B.C expression ([6]; Example 1, human melanoma cell lines (FIG. 14)): upregulation of MHC I | higher surface expression of MHC class I ([6]; WM39 and sh-control cells, p<0.01): more than 2.5 fold | surface expression of MHC class I ([6]; sh-STING (STING knockdown WM39) cells): did not cause any increase in MHC class I | IFN-γ secretion ([7]; 526-MEL / TIL 19 co-culture): did not induce any increased IFN-γ secretion | IFN-γ release ([7]; 526-MEL / TIL 195 co-cultures): no increase in IFN-γ release | increase in IFN-γ secretion ([7]; Example 2, STING-positive cell lines responding strongly, cultured with HLA-matched TILs, p<0.01): ≤ 15 fold | IFN-γ secretion by TIL ([7]; MART-1 pulsed WM39 / TIL 195 co-culture, p<0.001): significantly increased | IFN-γ production by TIL ([7]; MART-1 pulsed WM39 with two additional HLA-A2 TIL, p<0.01 vs untreated co-cultures): higher levels of IFN-γ production | IFN-γ release, higher than the untreated group ([7]; WM39 / TIL 19 co-cultures, p<0.001): 24 fold | higher IFN-γ release ([7]; WM39 / TIL 195 and sh-control / TIL 195 co-cultures, P<0.05): more than 25 fold | IFN-β in co-culture supernatants ([7]; WM39 / TIL 195 co-culture groups with 2′3′-cGAMP): Induction of IFN-β | IFN-γ secretion by TIL ([7]; WM39 / TIL 195 co-culture, with vs without 2′3′-cGAMP): significantly enhanced | IFN-γ release ([7]; WM3629 / TIL 195 co-cultures, p<0.01): increased | IFN-β induction ([7]; control group containing TIL with 2′3′-cGAMP, no tumor cells): not observed | IFN-γ induction ([7]; sh-STING (STING knockdown WM39) / TIL 195 co-cultures): no increase in IFN-γ induction

— US12584919B2, “Enhancing anti-tumor response in melanoma cells with defective sting signaling” (H. Lee Moffitt Cancer Center and Research Institute, Inc., priority 2018, dated 2026)
